Assay results taken from patent publication US5731432A, “Inhibitors of adenosine monophosphate deaminase” (priority 1994, dated 1998).
Read-outs that look alike come from different tables or passages of the source.

Assays:
[1] = biological target: AMPDA activity from porcine heart; experiment: AMP Deaminase Assay (Example A); assay type: biochemical; conditions: for Ki: porcine heart AMPDA, 37° C., pH 6.5, competitive inhibition assumed; for Selectivity Ratio: selectivity ratio=[ADA Ki/Km]/[AMPDA Ki/Km], K = 1,000
Method: Catalysis was initiated by the addition of enzyme to the otherwise complete reaction mixture, and terminated after 5 minutes by injection into an HPLC system. Activities were determined from the amount of IMP formed during 5 minutes.

[2] = biological target: T1, adenosine deaminase (ADA) from calf intestinal mucosa (Bos taurus, UniProt P56658); experiment: Adenosine Deaminase Assay (Example B); assay type: biochemical
T1 construct: adenosine deaminase (ADA) from calf intestinal mucosa; from tissue; host or cells: calf intestinal mucosa
T1 sequence (P56658 1-363): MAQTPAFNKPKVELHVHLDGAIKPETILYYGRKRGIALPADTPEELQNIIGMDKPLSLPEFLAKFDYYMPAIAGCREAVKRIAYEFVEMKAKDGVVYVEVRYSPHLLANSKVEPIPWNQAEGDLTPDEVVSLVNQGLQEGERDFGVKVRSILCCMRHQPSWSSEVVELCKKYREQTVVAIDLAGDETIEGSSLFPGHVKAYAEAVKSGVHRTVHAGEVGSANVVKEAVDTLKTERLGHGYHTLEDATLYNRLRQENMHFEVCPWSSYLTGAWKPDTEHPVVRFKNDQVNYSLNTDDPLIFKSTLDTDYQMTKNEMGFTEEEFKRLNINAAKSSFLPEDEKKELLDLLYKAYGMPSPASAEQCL
Method: Inhibition of adenosine deaminase (ADA) from calf intestinal mucosa was determined spectrophotometrically at pH 7.0 using one of the following two assays:
(1) Direct Assay: The reaction system mixture contained inhibitor, ~0.001 units ADA, and 40 mM potassium phosphate in 1 ml and at 37° C. The concentration of the substrate adenosine was varied from 20 to 100 μM.
The reaction was initiated by addition of adenosine and monitored continuously at 340 nm for 7 minutes as the decrease in absorbance reflects oxidation of NADH.

[3] = test system: Neutrophil-myocyte adhesion; experiment: Inhibition of Neutrophil-Myocyte Adhesion (Example C); assay type: cell-based; conditions: read-out: Neutrophil-Myocyte Adhesion Inhibition IC50
Method: Isolated neutrophils and myocytes were stimulated with the cytokine, TNF-α, and incubated in the presence of the test compound. Neutrophil-myocyte adhesion was determined as described by […], et al., J. Clin. Invest.

[4] = test system: Rat Focal Stroke Model; experiment: Rat model of ischemic brain injury / focal stroke (Example F); assay type: in vivo
Text: Each rat is anesthetized with halothane and placed on a heating pad hooked up to a temperature regulator and connected to rectal probe. EEG electrodes are then inserted into the temporalis muscle bilaterally in between the eye and the ear. A midline incision is made to expose the left Common Carotid Artery (CCA). The internal Carotid Artery (ICA)is isolated and carefully separated from the adjacent vagus nerve. Following ligation of various vessels the ICA should be the only remaining extracranial branch of the CCA. Two 5-0 silk sutures are tied loosely around the external carotid artery (ECA)and microvascular clips placed on both the CCA (proximal to the bifurcation)and the ICA (in between the first and the second bifurcation). The ECA above the bifurcation is coagulated and the two sutures are then cut below the coagulation. A 25 mm length 4-0 nylon suture, its tip rounded by heating near a fine tipped cauterizer, is introduced into the ECA lumen. 20-22 mm of the suture is inserted into the ECA stump. The suture around the ECA is tightened to hold the occluding suture in place and EEC reading is checked to confirm occlusion by the appearance of a flat line. At this point the intraluminal suture has blocked the origin of the […] (MCA), occluding all sources of blood flow from the interior Carotid Artery (ICA), the […] (ACA), and the posterior cerebral artery (PCA). At 105 min later the suture is gently retracted under halothane anesthesia to allow blood flow back into the middle cerebral artery. The neck incision is closed and animals allowed to recover from anesthesia. At 24 hrs animals are evaluated for behavioral deficits, sacrificed, transcardial perfused, brains removed and TTC stained for visualization of infarcted region using a computer assisted system.
The application of compound 1d is shown in the time line diagram. Thirty minutes prior to induction of ischemia (SUTURE IN) Compound 1d in isotonic saline solution was infused for 15 min at a loading dose of 250 μg/kg/min (50 μl/min)followed by maintenance rate of 50 μg/kg/min for the remaining 12 hrs.

[5] = test system: isolated rat hearts; experiment: Functional recovery in isolated rat heart model of ischemia-reperfusion injury (Example D); conditions: low flow ischemia then 30 minutes reperfusion
Method: The ability of AMP deaminase inhibitors of the present invention to improve the recovery of post-ischemic function was examined in an isolated rat heart model of ischemia-reperfusion injury.
Isolated rat hearts were cannulated via the ascending aorta and attached to a perfusion apparatus according to the method of Langendorff. The hearts were perfused at a constant pressure of 100 cm of H2 O with a modified Krebs-Hanseleit buffer (pH 7.4) at 37° C. Left ventricular developed pressures (LVDP) were monitored continuously using a latex balloon attached to a pressure transducer. Coronary flows were measured gravimetrically by timed collection of pulmonary effluent. Following equilibration of the hearts for a period of 30 minutes, the hearts were subjected to […] of low flow ischemia, by reducing the perfusion pressure to 10 cm of H2 O, and then reperfused for 30 minutes by restoring the pressure to its original level (100 cm of H2 O). […] Compound 1 m provided recovery of LVDP to 83±2% compared to the placebo value of 65±2% when added to the perfusion to give a concentration of 0.3 μM.

[6] = biological target: T2, ADA (Homo sapiens, UniProt P00813); conditions: reported; kind of constant not stated; cited from earlier work
T2 sequence (P00813 1-363): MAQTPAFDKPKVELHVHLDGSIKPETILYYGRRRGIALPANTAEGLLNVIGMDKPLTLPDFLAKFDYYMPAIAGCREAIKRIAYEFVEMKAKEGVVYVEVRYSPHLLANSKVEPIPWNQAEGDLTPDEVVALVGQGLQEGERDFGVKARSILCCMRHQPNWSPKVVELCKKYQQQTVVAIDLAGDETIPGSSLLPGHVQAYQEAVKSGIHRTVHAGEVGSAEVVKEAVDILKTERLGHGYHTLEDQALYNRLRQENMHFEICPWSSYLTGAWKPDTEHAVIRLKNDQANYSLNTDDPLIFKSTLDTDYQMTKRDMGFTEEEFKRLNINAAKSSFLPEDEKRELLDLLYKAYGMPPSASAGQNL

[7] = test system: AMPDA; conditions: reported; kind of constant not stated; cited from earlier work
[8] = calf intestinal mucosa ADA, pH 7.0, read-out: ADA Ki
[9] = neutrophils and myocytes stimulated with TNF-α
[10] = Treated, Post reperfusion, mean ± sem

Compound	Ki [1] [µM]	Selectivity Ratio [1]	Ki [2, 8] [µM]	IC50 [3, 9] [µM]	also measured
O=C(O)c1cc(CCn2cnc3c2N=CNCC3O)cs1 (stereo not shown) [compound 1o, 3-(2'-(2"-carboxythiophen-4"-yl)ethyl)coformycin aglycone]	2.2	590	> 6	8 ± 2	
O=C(O)c1cc(CCn2cnc3c2N=CNCC3O)c2ccccc2c1 (stereo not shown) [compound 1p, 3-(2'-(3"-carboxynaphthyl)ethyl)coformycin aglycone]	0.02	> 850K	> 1000		
O=C(O)C(CCCCn1cnc2c1NC=NCC2O)Cc1ccccc1 (stereo not shown) [compound 1j, 3-(5'-carboxy-6'-phenylhexyl)coformycin aglycone]			> 200	0.045 ± 0.01	
CC(C)=CCC[C@H](C)CCn1cnc2c1N=CNCC2O (stereo partly drawn) [compound 1c, (3'S)-3-(3',7'-dimethyloct-6'-enyl)coformycin aglycone]	1.1	29	1.9	5.1 ± 2.5	
OC1CNC=Nc2c1ncn2C1CCCCCC1 (stereo not shown) [compound 1d, 3-cycloheptylcoformycin aglycone]	8	17	7.9	4.3 ± 1.3	Blood Pressure [4, 10]: 115 ± 4 mm Hg; Temperature [4, 10]: 38.6 ± 0.2 °C; Blood Pressure ([4]; Treated, Pre, mean ± sem): 102 ± 5 mm Hg; Temperature ([4]; Treated, T = 0, mean ± sem): 37.4 ± 0.2 °C; Blood Pressure ([4]; Treated, T = 60, mean ± sem): 84 ± 9 mm Hg; Temperature ([4]; Treated, T = 60, mean ± sem): 37.5 ± 0.2 °C; pCO2 ([4]; Treated, mean ± sem): 37.8 ± 1.3; pH ([4]; Treated, mean ± sem): 7.379 ± 0.015; pO2 ([4]; Treated, mean ± sem): 142.3 ± 10.0; effect on physiological parameters such as blood pressure, heart rate, body temperature and blood gases ([4]; continuous infusion): no apparent effect; reduction of infarct volume ([4]; infusion 250 μg/kg/min for 15 min then 50 μg/kg/min, vs control): 52%; infarct volume ([4]; treated, n=8, control 139±31 (n=7), p=0.05): 71±28 mm^3
CCCCCCCn1cnc2c1N=CNCC2(C)O (stereo not shown) [compound 1b, 3-heptyl-8-methylcoformycin aglycone]	36	6	12		
CC1=Nc2c(ncn2CCCc2ccccc2C)C(O)CN1 (stereo not shown) [compound 1g, 5-methyl-3-(3'-(2"-methylphenyl)propyl)coformycin aglycone]	11	> 150	> 100		
CC1(C)[C@H]2CC[C@H](Cn3cnc4c3N=CNCC4O)[C@@H]1C2 (stereo partly drawn) [compound 1e, (l'S,2'S,5'S)-3-(6',6'-dimethyl[3,1,1]-bicyclohept-2'-methyl)coformycin aglycone]	1.7	> 1.6K	> 160	24 ± 3	
Cc1ccc(C(=O)O)cc1CCn1cnc2c1N=CNCC2O (stereo not shown) [compound 1m, 3-(2'-(3"-carboxy-6"-methylphenyl)ethyl)coformycin aglycone]	0.097	> 175K	> 1000		IC50 [3]: 0.03 ± 0.01 µM; recovery of LVDP ([5]; 0.3 μM in perfusion, placebo 65±2%): 83±2%
OC[C@H]1O[C@@H](n2cnc3c2N=CNC[C@H]3O)[C@H](O)[C@@H]1O [Coformycin, coformycin]					inhibition of ADA [6]: < 0.2 nM; inhibition of AMPDA [7]: 1000 nM
CCCOc1ccc(CCCn2cnc3c2N=CNCC3O)cc1 (stereo not shown) [compound 1i, 3-(3'-(4"-propoxyphenyl)propyl)coformycin aglycone]	3.6	0.03	0.006		
OC[C@H]1O[C@@H](n2cnc3c2NC=NC[C@H]3O)C[C@@H]1O [deoxycoformycin]					inhibition of AMPDA [7]: 1000 nM
Cc1ccccc1CCCn1cnc2c1N=CNCC2O (stereo not shown) [compound 1f, 3-(3'-(2"-methylphenyl)propyl)coformycin aglycone]	2.1	0.34	0.042	1.4 ± 0.45	
Cc1ccc(-c2nn[nH]n2)cc1CCn1cnc2c1N=CNCC2O (stereo not shown) [compound 1n, 3-(2'-(6"-methyl-3"-(tetrazol-5'"-yl)phenyl)ethyl)coformycin aglycone]	1.6	> 2.1K			Ki [2]: > 200 µM
CCCCCCCn1cnc2c1N=CNCC2O (stereo not shown) [compound 1a, 3-heptylcoformycin aglycone]	10		0.35		IC50 [3]: 12 ± 6 µM; recovery of LVDP ([5]; 3 μM in perfusion, placebo 69±1%): 83±3%
CC(CCCCn1cnc2c1N=CNCC2O)(C(=O)O)C(=O)NCc1ccccc1 (stereo not shown) [compound 1l, 3-(5'-carbox-N-benzylamido-5'-carboxyhexyl)coformycin aglycone]	2.7	> 6.3K	> 1000		
O=C(O)C(CCCCn1cnc2c1N=CNCC2O)C(=O)OCc1ccccc1 (stereo not shown) [compound 1k, 3-(5'-carboxy-5'-carbobenzyloxypentyl)coformycin aglycone]	0.36	> 47K	> 1000		
[N-]=[N+]=NC1CNC=Nc2c1ncn2CCCc1ccccc1 (stereo not shown) [compound 1h]	6.6	0.16	0.063		
